The source of these data is ChEMBL document CHEMBL1156448, “Identification of an efficacy switch region in the ghrelin receptor responsible for interchange between agonism and inverse agonism” (J Biol Chem, 2007).

Molecules are shown by their SMILES.

Assay [1] addresses T1, Growth hormone secretagogue receptor type 1 (Homo sapiens, UniProt Q92847). Description: Displacement of [35S]MK677 from human ghrelin receptor expressed in african green monkey COS7 cells. The class given is cell-based, COS-7.
The target of assay [2] is T1, Growth hormone secretagogue receptor type 1. Description: Inverse agonist activity at human ghrelin receptor expressed in african green monkey COS7 cells assessed as constitutively stimulated inositol phosphate accumulation. The format is functional, cell-based, COS-7.

T1 sequence (Q92847 whole entry): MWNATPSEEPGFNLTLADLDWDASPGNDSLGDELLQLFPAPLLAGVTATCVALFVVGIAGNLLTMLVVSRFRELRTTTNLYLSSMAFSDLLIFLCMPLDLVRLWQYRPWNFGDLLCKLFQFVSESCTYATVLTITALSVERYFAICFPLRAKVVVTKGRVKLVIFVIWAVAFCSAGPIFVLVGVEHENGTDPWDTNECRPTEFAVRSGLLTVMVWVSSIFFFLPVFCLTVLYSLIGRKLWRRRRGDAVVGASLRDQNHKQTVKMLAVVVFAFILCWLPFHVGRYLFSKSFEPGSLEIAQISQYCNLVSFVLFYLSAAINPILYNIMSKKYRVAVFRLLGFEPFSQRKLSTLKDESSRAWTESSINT

As for `NC(=O)CNC(=O)CNC(=O)[C@@H](Cc1c[nH]c2ccccc12)NC(=O)[C@H](Cc1ccccc1)NC(=O)[C@H](N)Cc1c[nH]c2ccccc12`, the figures for the 50% inhibitory concentration (IC50) in assay [1] and in assay [2] were 540 nM and 159 nM, respectively.

As to `C[C@H](NC(=O)[C@H](C)NC(=O)[C@@H](Cc1c[nH]c2ccccc12)NC(=O)[C@H](Cc1ccccc1)NC(=O)[C@H](N)Cc1c[nH]c2ccccc12)C(N)=O`, the IC50 in assay [1] and in assay [2] was greater than 1000 nM each time.

For the compound `CC(C)C[C@H](NC(=O)[C@H](CC(C)C)NC(=O)[C@@H](Cc1c[nH]c2ccccc12)NC(=O)[C@H](Cc1ccccc1)NC(=O)[C@@H](Cc1c[nH]c2ccccc12)NC(=O)[C@@H](N)CC(=O)O)C(N)=O`, the IC50 in assay [1] was determined as 60 nM; in assay [2], 260 nM.

Take `CC(C)C[C@H](NC(=O)[C@H](CC(C)C)NC(=O)[C@@H](Cc1c[nH]c2ccccc12)NC(=O)[C@H](Cc1ccccc1)NC(=O)[C@H](N)Cc1c[nH]c2ccccc12)C(N)=O`: the figures for the IC50 in assay [1] and in assay [2] were 530 nM and greater than 1000 nM, respectively.

As to `CC(C)C[C@H](NC(=O)[C@H](CC(C)C)NC(=O)[C@@H](Cc1c[nH]c2ccccc12)NC(=O)[C@H](Cc1ccccc1)NC(=O)[C@@H](Cc1c[nH]c2ccccc12)NC(=O)[C@@H](N)CCC(N)=O)C(N)=O`, the IC50 amounted to 120 nM in assay [1] and 990 nM in assay [2].
